Assay [1] concerns the target Aryl hydrocarbon receptor (Homo sapiens, UniProt P35869). The assay is described as follows: Luminescence-based cell-based high throughput dose response assay for activators of the Aryl Hydrocarbon Receptor (AHR). [Related pubchem assays: 2796 (Primary screen (AHR activators in singlicate)), 2845 (Confirmation screen (AHR activators in triplicate)), 434939 (Counterscreen (PXR activators in triplicate)), 2804 (Summary (AHR activators))]. Type of assay: ADME. On the technique in general: The purpose of a counterscreen is to sort out artefacts and off-target activity.

The target of assay [2] is Voltage-gated inwardly rectifying potassium channel KCNH2 (Homo sapiens, UniProt Q12809). The assay is described as follows: concentration-dependent hERG rescue from blockers – cell-based, thallium flux, dose response (AID 2121). Type of assay: ADME. On the technique in general: hERG is a cardiac potassium channel; its block is linked to QT prolongation.
Assay [3] concerns the target Galanin receptor type 2 (Homo sapiens, UniProt O43603). The assay is described as follows: Dose Response cell-based high-throughput screening assay to identify antagonists of galanin receptor 2 (GALR2). [Related pubchem assays: 828, 866 ]. Type of assay: functional.
A short description of assay [4]: luciferase reporter signal reduction – luminescence, H4-C neuroglioblastoma cells, dose response (AID 2458).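 Also: H4 neuroglioblastoma cells stably carrying a luciferase reporter gene fusion.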 Type of assay: functional, cell-based. Background: A reporter such as luciferase makes a cellular process visible.
For assay [5], the target named is Photoreceptor-specific nuclear receptor (Homo sapiens, UniProt Q9Y5X4). Type of assay: functional, cell-based.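 Also: CHO-S cells with Gal4-NCOR and VP16-NR2E3 two-hybrid luciferase reporter.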
Assay [6] can be described thus: luciferase reporter signal suppression in cells – H4 neuroglioma cells, luminescence, dose response (AID 1990). Type of assay: functional, cell-based.
Assay [7] deals with BJ. Kind of assay: BJ-TERT-LT-ST fibroblast viability loss – cell-based, RAS-independent, luminescence, dose response (AID 1935).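 Also: BJ fibroblasts immortalized with TERT plus LT and ST oncogenes.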 Type of assay: functional, Homo sapiens. Conditions: Homo sapiens, BJ.
Assay [8] has as its target Paired box protein Pax-8 (Homo sapiens, UniProt Q06710). Kind of assay: PAX8 transcriptional activity inhibition in RMG-I – RMG-I cells, luciferase, cherry-pick, dose response (AID 687027).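 Also: luciferase reporter driven by Pax8 target thyroperoxidase promoter measured by SteadyGlo luminescence.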 Type of assay: functional, cell-based.
The nature of assay [9]: HEK-293T cell viability reduction – luminescence, B-cell screen hits, cytotoxicity control for BCR NF-kB inhibitor project, dose response (AID 489021).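 Also: HEK-293T cells carrying an NF-kB luciferase reporter; cells exposed to compound for about 14 hours before viability readout.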 Type of assay: functional, cell-based.
Assay [10] is described as follows: alpha-synuclein stem-loop luciferase translation blockers – H4 neuroglioma cells, luminescence, confirmation (AID 1988). Type of assay: functional, cell-based.
Assay [11] deals with Major prion protein (Homo sapiens, UniProt P04156). Type of assay: functional, cell-based.
Assay [12] is described as follows: Luminescence Cell-Based Dose Response HTS to Identify Inhibitors of 5'UTR Stem-Loop Driven Prion Protein mRNA Translation in H4 Neuroglioblastoma Cells. [Related pubchem assays: 1827 (Project Summary), 1813 (Primary HTS)]. Type of assay: functional.
Assay [13] has as its system BJ. The assay is described as follows: cells. The following applies: Homo sapiens, BJ. Type of assay: functional, cell-based, Homo sapiens.
Assay [14] in a line: cells.
The nature of assay [15]: Luminescence-based dose response cell-based high throughput screening assay for cytotoxic compounds using the IEC-6 intestinal epithelial cell line. [Related pubchem assays: 1858 (Summary AID.), 1825 (Counterscreen.), 1907 (Confirmation screen.)]. Type of assay: functional.
Assay [16] is described as follows: cells. Type of assay: functional, cell-based.
In assay [17] the test system is INS1. The assay is described as follows: INS-1E survival protection against cytokine death – cell-based, luminescence, retest, dose response (AID 449756).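 Also: cell death triggered by IL-1 beta plus TNF-alpha plus IFN-gamma mixture; protective hits raise ATP signal compared with cytokine alone wells.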 Type of assay: functional. Conditions: Rattus norvegicus.
In assay [18] the target is T1, High affinity choline transporter 1 (Homo sapiens, UniProt Q9GZV3).
T1 sequence (Q9GZV3 whole entry): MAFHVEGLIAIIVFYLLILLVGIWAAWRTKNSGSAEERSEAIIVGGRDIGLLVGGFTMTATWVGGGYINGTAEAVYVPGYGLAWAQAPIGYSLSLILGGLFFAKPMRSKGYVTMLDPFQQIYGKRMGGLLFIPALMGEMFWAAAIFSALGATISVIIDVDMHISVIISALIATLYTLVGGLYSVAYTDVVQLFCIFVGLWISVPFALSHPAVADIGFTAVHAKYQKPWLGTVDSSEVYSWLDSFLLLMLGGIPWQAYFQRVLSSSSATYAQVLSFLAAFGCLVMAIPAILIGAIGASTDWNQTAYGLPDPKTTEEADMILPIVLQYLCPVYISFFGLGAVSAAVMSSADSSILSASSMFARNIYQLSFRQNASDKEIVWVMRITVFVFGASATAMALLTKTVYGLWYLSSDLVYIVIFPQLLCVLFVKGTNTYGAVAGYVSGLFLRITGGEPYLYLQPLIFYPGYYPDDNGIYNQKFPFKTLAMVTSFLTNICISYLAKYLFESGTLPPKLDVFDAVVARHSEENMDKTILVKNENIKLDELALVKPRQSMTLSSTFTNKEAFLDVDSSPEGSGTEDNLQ
The assay is described as follows: human choline transporter blockers, potency – cell-based, 5-point CRC, membrane potential dye, dose response (AID 504840). Type of assay: functional.

The nature of assay [19]: alpha-synuclein stem-loop translation blockers – luminescence, H4 neuroglioblastoma cells, dose confirmation, confirmation (AID 2454).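 Also: H4 neuroglioblastoma cells carrying an alpha-synuclein 5'UTR luciferase reporter; potency for inhibition of the luciferase signal.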 Type of assay: functional, cell-based.
Assay [20] addresses T1, High affinity choline transporter 1. Kind of assay: human choline transporter blockers, potency – cell-based, 10-point CRC, membrane potential dye, dose response (AID 588401).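 Also: membrane potential dye fluorescence of choline-evoked depolarization via CHT.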 Type of assay: functional.

Broadly, the EC50 is the midpoint of the concentration-response curve. The IC50 is the concentration needed to halve the response being measured. Usually AC50 stands for the concentration giving half of the maximal activity seen.

The source made the active and inactive calls.

`Cc1nccc(-c2ccc(-n3cnc4ccccc43)cc2)n1`: the EC50 in assay [1] is > 1130 nM (active).
For the compound `COc1ccc(C(=O)CC(=O)C(=O)Nc2ccc(Cl)cc2)cc1`, the EC50 in assay [2] is 1740 nM (active).
Turning to `CC1CCC/C=C/C2CC(O)CC2C(O)/C=C/C(=O)O1` (stereo not given), the IC50 in [3] was > 42000 nM (not active); in [5], 714 nM (active); in assay [9] it was > 80000 nM (inactive); in assay [11] it was 3430 nM (active); in assay [14], > 138000 nM (inactive); in assay [15], 353 nM (active). In addition, the values for the IC50 in assay [18] and in [20] were 1870 nM (active) and 3030 nM (active), respectively. Besides, the EC50 in [4] was 78 nM (active); in [6], < 100 nM (active); in [7], < 120 nM (active); in assay [10], < 100 nM (active); in [12], < 100 nM (active); in assay [13] it was > 150000 nM (inconclusive). Further, the results for the EC50 in assay [16] and in assay [19] were 78 nM (active) and 71 nM (active), respectively. In addition, the AC50 in assay [8] was < 260 nM (active); in assay [17], 740 nM (active).

Source of the values: ChEMBL document CHEMBL1201862, “PubChem BioAssay data set” (2004).
